Experimental data reported in patent publication US11118162B2, “Cytopheresis cartridges and use thereof” (SeaStar Medical, Inc., priority 2010, dated 2021).

Legend:
[1] = system: leukocytes in porcine blood; test: Microscopic flow chamber: leukocyte interaction with polysulfone SCD membrane; type: cell-based, pig
Text: A custom microscopic flow chamber system was set up to enable microscopic analysis of leukocyte interaction with the SCD membrane. The flow chamber consisted of a polycarbonate housing with an inlet and outlet for perfusion. A polysulfone membrane was affixed to the polycarbonate block with a gasket which directed shear flow. The thickness of the gasket (100 μm) along with the length (2 cm) and the width of the channel (1.5 mm) determined the volume of the flow chamber. Microscopic imaging was accomplished through an optical window made up of a cover glass affixed to the bottom of the polycarbonate block. Either isolated blood or purified leukocytes were used for this study.
Isolated blood was prone to activation from excessive handling. […] Blood passed through the flow chamber at a rate of 20 μL/min with calculated shear forces between 1-10 dynes/cm^2. […]
Microscopic analysis of cell capture events was accomplished using either a Zeiss Axiovert 200M or Axio-Observer epifluorescence microscope equipped with a microscope stage-top incubator to control environmental temperature and CO2 content. Fluorescence images were acquired with either a Zeiss MRm3 or an Icc1 camera at a frequency of 1 frame/second for 5 minutes, for analysis of leukocyte/membrane interaction, and at 1 frame/minute for 1 hour sequences, for analysis of long term leukocyte attachment. […]

[2] = system: leukocytes in human whole blood; test: In vitro leukocyte activation in heparinized human whole blood; type: cell-based; conditions: for Lactoferrin: n = 4; for Elastase: n = 5
Procedure: Heparinized human whole blood was added to tubes with or without lipopolysaccharide (LPS) (10 μg/mL) or formyl-Methionyl-Leucyl-Phenylalanine (fMLF, 50 nM). […] The release of IL-6, IL-8, or IL-10 was measured using commercially available ELISA kits from R&D Systems. The release of elastase was measured using a commercially available ELISA kit from Bender MedSystems. The release of lactoferrin was measured using a commercially available ELISA kit from EMD Chemicals. […] Samples were incubated for various times at 37° C. and 5% CO2. CD11b activation was measured using an FITC-conjugated mouse anti-human antibody (AbD Serotech) and evaluated on an Accuri C6 flow cytometer.

| Compound | Persistent leukocyte adhesion events ([1]; 1 hour sequences, LPS and citrate versus LPS only) | Rolling events ([1]; LPS and citrate treated blood) | Lactoferrin ([2]; Baseline) [mg/mL] | Elastase ([2]; Baseline) [mg/mL] | Lactoferrin ([2]; Stimulated (LPS, fMLF)) [mg/mL] | Elastase ([2]; Stimulated (LPS, fMLF)) [mg/mL] |
| --- | --- | --- | --- | --- | --- | --- |
| O=C(O)CC(O)(CC(=O)O)C(=O)O [Citrate] | far fewer | observed increase | – | – | – | – |
| heparin | – | – | 8.47 | 2.73 | 12.42 | 4.52 |
